Legend:
Assay type in all cases: functional
Athelia rolfsii [1] = assay: Antifungal activity against Athelia rolfsii assessed as growth inhibition at 10 ppm by agar dilutopn method; conditions: Agroathelia rolfsii; read-out: GI
Athelia rolfsii [2] = assay: Antifungal activity against Athelia rolfsii assessed as growth inhibition at 100 ppm by agar dilutopn method; conditions: Agroathelia rolfsii; read-out: GI
Pythium [3] = assay: Antifungal activity against Pythium sp. assessed as growth inhibition at 10 ppm by agar dilution method; conditions: read-out: GI
Pythium [4] = assay: Antifungal activity against Pythium sp. assessed as growth inhibition at 100 ppm by agar dilution method; conditions: read-out: GI

SMILES	inhibition of growth at 10 ppm (Athelia rolfsii [1])	inhibition of growth at 100 ppm (Athelia rolfsii [2])	inhibition of growth at 10 ppm (Pythium [3])	inhibition of growth at 100 ppm (Pythium [4])
CCCCNP1(=S)OCc2cc(CCCC)ccc2O1 (centres undefined)	44%	70%	5%	33%
CCCCc1ccc2c(c1)COP(=S)(NCC(C)C)O2 (centres undefined)	22%	48%	8%	28%
CCCCc1ccc2c(c1)COP(=S)(NC(C)CC)O2 (centres undefined)	24%	47%	33%	38%
CCCNP1(=S)OCc2cc(C(C)CC)ccc2O1 (centres undefined)	48%	77%	14%	48%
CCC(C)c1ccc2c(c1)COP(=S)(NC(C)C)O2 (centres undefined)	28%	75%	0%	48%
CCCCNP1(=S)OCc2cc(C(C)CC)ccc2O1 (centres undefined)	39%	63%	4%	11%
CCC(C)c1ccc2c(c1)COP(=S)(NCC(C)C)O2 (centres undefined)	31%	63%	0%	14%
CCC(C)NP1(=S)OCc2cc(C(C)CC)ccc2O1 (centres undefined)	0%	37%	0%	7%
CCCNP1(=S)OCc2cc(CCC)ccc2O1 (centres undefined)	63%	92%	66%	87%
CCCc1ccc2c(c1)COP(=S)(NC(C)C)O2 (centres undefined)	57%	81%	59%	80%
CCCCNP1(=S)OCc2cc(CCC)ccc2O1 (centres undefined)	66%	76%	54%	65%
CCCc1ccc2c(c1)COP(=S)(NCC(C)C)O2 (centres undefined)	59%	79%	44%	57%
CCCc1ccc2c(c1)COP(=S)(NC(C)CC)O2 (centres undefined)	44%	64%	44%	59%
CCCNP1(=S)OCc2cc(C(C)C)ccc2O1 (centres undefined)	58%	90%	57%	75%
CC(C)NP1(=S)OCc2cc(C(C)C)ccc2O1 (centres undefined)	58%	90%	53%	82%
CCCCNP1(=S)OCc2cc(C(C)C)ccc2O1 (centres undefined)	56%	70%	29%	49%
CC(C)CNP1(=S)OCc2cc(C(C)C)ccc2O1 (centres undefined)	49%	76%	14%	18%
CCC(C)NP1(=S)OCc2cc(C(C)C)ccc2O1 (centres undefined)	34%	68%	11%	43%
CCCCc1ccc2c(c1)COP(=S)(NCCC)O2 (centres undefined)	55%	71%	54%	72%
CCCCc1ccc2c(c1)COP(=S)(NC(C)C)O2 (centres undefined)	42%	59%	54%	57%
CC(C)OP(=O)(OC(C)C)SCc1ccccc1 [IPROBENFOS]	69%	100%	42%	89%

Reference: ChEMBL document CHEMBL3044540, “Synthesis and Fungicidal Activity of New 6-Alkyl-2-alkylamino-4H-1, 3, 2-benzodioxaphosphorin 2-Sulfides” (1998)
